Source: publication PMC7577563 (Journal of medicinal chemistry, 2019)
Square brackets hold non-standard residues; d marks the D form. Peptide text beside a SMILES is read from it. Tyr(SO2F) = N[C@@H](Cc1ccc(OS(=O)(=O)F)cc1)C(=O)O; NMeA = CN[C@@H](C)C(=O)O

What was measured:
[1] = Chemical
[2] = Plasma stability; assay type: in vitro ADME; details: mouse plasma

CN[C@@H](C)C(=O)N[C@@H](Cc1ccc(OS(=O)(=O)F)cc1)C(=O)N1CCC[C@H]1C(=O)N[C@@H](Cc1ccccc1)C(N)=O [Compound 4] (H-[NMeA][Tyr(SO2F)]PF-NH2)
Aqueous stability at physiological pH [1]: the most stable

CN[C@@H](C)C(=O)N[C@@H](CNC(=O)c1ccc(S(=O)(=O)F)cc1)C(=O)N1CCC[C@H]1C(=O)N[C@@H](Cc1ccccc1)C(N)=O [Compound 2]
Aqueous stability at physiological pH [1]: the least stable

CN[C@@H](C)C(=O)N[C@@H](CNCc1ccc(S(=O)(=O)F)cc1)C(=O)N1CCC[C@H]1C(=O)N[C@@H](Cc1ccccc1)C(N)=O [Compound 3]
Aqueous stability at physiological pH [1]: intermediate stability

CN[C@@H](C)C(=O)N[C@@H](CNCc1ccc(S(=O)(=O)F)cc1)C(=O)N1CCC[C@H]1C(=O)N[C@@H]1CCc2c(F)cccc21 [Compound 11, 4-((((S)-3-((S)-2-(((R)-4-fluoro-2,3-dihydro-1H-inden-1-yl)carbamoyl)pyrrolidin-1-yl)-2-((S)-2(methylamino)propanamido)-3-oxopropyl)amino)methyl)benzenesulfonyl fluoride]
Plasma stability [2]: completely degraded in plasma after 40 minutes
